Test systems include A549; COLO 205; DLD-1; EKVX; HCT-15; IGROV-1; K562; KM12; M19-MEL; NCI-H226; OVCAR-4; RPMI-8226; RXF 393; SF-295; SF-539; UACC-62; NCI-H460.
Holding throughout (assay): DTP human tumour cell line panel, 48 h

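Growth conditions: 96-well plates. Treatment: test compound, 48 hours, 5 concentrations. Analysis: linear interpolation between bracketing concentrations; unreached endpoints set to highest concentration. The concentration for 50% growth inhibition is given as GI50.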 Activity calls are given as the source filed them. No stated cut-off is given here; in the data, active = GI50 up to about 1.1 µM and inactive = higher.

`CCC1(CN(C)C)CC/C(=C\c2ccc3c(c2)OCO3)C1=O` (stereo not drawn): the GI50 (as a rule, the concentration giving 50% growth inhibition) is > 100 µM (inactive) with A549; > 100 µM (inactive) in the assay on COLO 205; 82.2 µM (inactive) with DLD-1; 52.1 µM (inactive) in the assay with EKVX; > 100 µM with HCT-15; > 100 µM (inactive) in the assay with IGROV-1. For the same molecule, the GI50 with K562 is 65.9 µM (inactive); in the assay on KM12, > 100 µM (inactive); in the assay on M19-MEL, > 100 µM (inactive); in the assay on NCI-H226 it was > 100 µM (inactive); in the assay on OVCAR-4, > 100 µM (inactive); in the assay on RPMI-8226, 40.7 µM (inactive). In addition, the GI50 in the assay on RXF 393, in the assay with SF-295, in the assay with SF-539 and with UACC-62 was > 100 µM (inactive) each time.

Take `CC(=O)OC12C=CC(=O)N1c1ccccc1C(=O)O2` (stereo not drawn): the GI50 in the assay with A549 is > 100 µM (inactive); in the assay on COLO 205, > 100 µM (inactive); in the assay on DLD-1, > 100 µM (inactive); with EKVX, > 100 µM (inactive); in the assay with HCT-15, > 100 µM; in the assay on IGROV-1 it was > 100 µM (inactive). Also, the GI50 in the assay on K562, in the assay on KM12, with M19-MEL, in the assay with NCI-H226, in the assay with NCI-H460 and in the assay on OVCAR-4 was > 100 µM (inactive) each time. Besides, the GI50 in the assay on RPMI-8226, with RXF 393, in the assay with SF-295, in the assay with SF-539 and in the assay with UACC-62 was > 100 µM (inactive) in each case.

For `C=CC1(C)CCC(C(C)C(=O)C(C=C(C)C)OC(C)=O)C12C(=O)Oc1ccccc1C2=O` (stereo not drawn), the GI50 in the assay with A549 was 35.7 µM (inactive); in the assay with COLO 205 it was 29.4 µM (inactive); in the assay with DLD-1, 54.5 µM (inactive); in the assay with EKVX it was 60.8 µM (inactive); with HCT-15, 38.5 µM; in the assay on IGROV-1 it was 72.3 µM (inactive). Further, the GI50 in the assay on K562 was 31.6 µM (inactive); with KM12, 44.8 µM (inactive); in the assay with M19-MEL it was 26.2 µM (inactive); in the assay on NCI-H226, 58.5 µM (inactive); in the assay on NCI-H460, 29.6 µM (inactive); in the assay with OVCAR-4, 45.2 µM (inactive). Also, the GI50 with RPMI-8226 is 23.7 µM (inactive); in the assay with RXF 393 it was 26.7 µM (inactive); in the assay with SF-295 it was 47.9 µM (inactive); in the assay on SF-539, > 100 µM (inactive); in the assay with UACC-62, 49 µM (inactive).

Turning to `COC(=O)c1ccc(/C=C/S(=O)(=O)c2ccccc2)cc1`, the GI50 was > 100 µM (inactive) with A549; > 100 µM (inactive) in the assay with COLO 205; > 100 µM (inactive) with DLD-1; > 100 µM (inactive) with EKVX; > 100 µM in the assay on HCT-15; > 100 µM (inactive) in the assay with IGROV-1. The GI50 with K562, with KM12, with M19-MEL, with NCI-H226, with NCI-H460 and with OVCAR-4 was > 100 µM (inactive) throughout. Also, the GI50 with RPMI-8226, in the assay on RXF 393, in the assay on SF-295, in the assay on SF-539 and with UACC-62 was > 100 µM (inactive) in each case.

Take `NC(=O)C(=O)N/N=C(\CC1(O)C(=O)Nc2ccccc21)c1ccc2ccccc2c1` (stereo not drawn): the GI50 with A549 was 20.7 µM (inactive); with COLO 205, 22.8 µM (inactive); in the assay on DLD-1 it was 37.8 µM (inactive); in the assay with EKVX it was 33.1 µM (inactive); in the assay with HCT-15 it was 24.5 µM; in the assay on IGROV-1 it was 40.5 µM (inactive). Also, the GI50 in the assay with K562 is 23.1 µM (inactive); in the assay on KM12 it was 21.7 µM (inactive); in the assay with M19-MEL, 25.2 µM (inactive); with NCI-H226, 41.4 µM (inactive); with NCI-H460, 34 µM (inactive); with OVCAR-4, 37.1 µM (inactive). In addition, the GI50 in the assay with RPMI-8226 is 34.4 µM (inactive); in the assay on RXF 393, 24.8 µM (inactive); in the assay on SF-295 it was 37.9 µM (inactive); with SF-539, 48.9 µM (inactive); in the assay on UACC-62, 19.8 µM (inactive).

Consider `CC(=O)Nc1ccc(C2C(C(=O)Nc3ccccc3C)=C(C)NC(C)=C2C(=O)Nc2ccccc2C)cc1`, for which the GI50 in the assay with A549 is > 100 µM (inactive); in the assay with COLO 205, > 100 µM (inactive); in the assay on DLD-1, > 100 µM (inactive); in the assay with EKVX it was > 100 µM (inactive); in the assay with HCT-15, > 100 µM; in the assay on IGROV-1, > 100 µM (inactive). In addition, the GI50 was 57.5 µM (inactive) with K562; > 31.6 µM (inactive) in the assay with KM12; > 100 µM (inactive) in the assay on M19-MEL; > 100 µM (inactive) in the assay on NCI-H226; > 100 µM (inactive) with NCI-H460; > 100 µM (inactive) with OVCAR-4. Further, the GI50 is > 100 µM (inactive) in the assay on RPMI-8226; > 100 µM (inactive) with RXF 393; > 100 µM (inactive) in the assay with SF-295; > 100 µM (inactive) with SF-539; > 92.3 µM (inactive) in the assay with UACC-62.

Take `Cc1cccc(NC(=O)C(=O)C2C(=O)NC(=O)NC2=O)c1C`: the GI50 is > 100 µM (inactive) in the assay on A549; > 100 µM (inactive) in the assay on COLO 205; > 100 µM (inactive) with DLD-1; > 100 µM (inactive) with EKVX; > 100 µM in the assay on HCT-15; > 100 µM (inactive) in the assay on IGROV-1. Also, the GI50 in the assay with K562, in the assay with KM12, in the assay on M19-MEL, with NCI-H226, with NCI-H460 and in the assay with OVCAR-4 was > 100 µM (inactive) in each case. Besides, the GI50 in the assay on RPMI-8226, with RXF 393, with SF-295, in the assay with SF-539 and in the assay with UACC-62 was > 100 µM (inactive) in each case.

`O=C(Nc1ccccc1SC(/C=C/NNC1=NN=C(c2ccccc2)C(c2ccccc2)N1)c1ccccc1)c1ccc(Cl)cc1Cl` (stereo not drawn): the GI50 was 38.9 µM (inactive) in the assay on A549; > 100 µM (inactive) with COLO 205; 49.2 µM (inactive) in the assay with DLD-1; 37.8 µM (inactive) with EKVX; 36 µM in the assay on HCT-15; 50 µM (inactive) in the assay on IGROV-1. Also, the GI50 with K562 is 60.1 µM (inactive); with KM12, 38.1 µM (inactive); with M19-MEL, 44.3 µM (inactive); with NCI-H226, 31.4 µM (inactive); in the assay with NCI-H460 it was 42.7 µM (inactive); in the assay on OVCAR-4, 35.9 µM (inactive). Moreover, the GI50 was 58.6 µM (inactive) in the assay with RPMI-8226; 40.7 µM (inactive) in the assay with RXF 393; 25.6 µM (inactive) in the assay on SF-295; 23.3 µM (inactive) in the assay with SF-539; 36.8 µM (inactive) in the assay on UACC-62.

On to `Cc1ccc(S(=O)(=O)NC2(C=O)CCCC3CCCCC32)cc1` (stereo not drawn), for which the GI50 in the assay on A549 was > 100 µM (inactive); with COLO 205 it was > 100 µM (inactive); in the assay on DLD-1 it was > 100 µM (inactive); with HCT-15 it was > 100 µM; with IGROV-1, > 100 µM (inactive); in the assay on K562, > 100 µM (inactive). Also, the GI50 in the assay with KM12, in the assay on M19-MEL, with NCI-H226, with NCI-H460, in the assay with OVCAR-4 and in the assay on RPMI-8226 was > 100 µM (inactive) in each case. Besides, the GI50 in the assay with RXF 393, in the assay with SF-539 and in the assay on UACC-62 was > 100 µM (inactive) in each case.

For `CCN(CC)CCNc1ccc(C)c2sc3ccc(O)cc3c(=O)c12`, the GI50 in the assay with A549 was < 0.0431 µM (active); in the assay on COLO 205 it was 1.62 µM (inactive); in the assay with DLD-1, 1.66 µM (inactive); in the assay on EKVX it was 10.2 µM (inactive); with HCT-15, 0.923 µM; in the assay with IGROV-1, 1.23 µM (inactive). For the same molecule, the GI50 in the assay on K562 is 0.832 µM (active); with KM12, 1.43 µM (inactive); with M19-MEL it was 1.1 µM (active); with NCI-H226, 0.466 µM (active); in the assay with NCI-H460, < 0.0128 µM (active); in the assay on OVCAR-4 it was 2.7 µM (inactive). Further, the GI50 in the assay with RPMI-8226 is 1.05 µM (active); with RXF 393, 2.51 µM (inactive); with SF-295 it was 0.27 µM (active); in the assay with SF-539, 1.15 µM (inactive); with UACC-62, 0.986 µM (active).

For `C[C@]12CCC(=O)C=C1CC[C@@H]1C2CC[C@]2(C)NC(=O)C(C#N)CC12` (stereo partly drawn), the GI50 in the assay with A549 was > 100 µM (inactive); with DLD-1, > 100 µM (inactive); in the assay on HCT-15, > 100 µM; in the assay with IGROV-1 it was > 100 µM (inactive); with K562 it was > 100 µM (inactive); in the assay with KM12, > 10 µM (inactive). Also, the GI50 in the assay on M19-MEL, in the assay with NCI-H226, in the assay on NCI-H460, with OVCAR-4, in the assay with RPMI-8226 and in the assay on RXF 393 was > 100 µM (inactive) in each case. The GI50 with SF-295, in the assay with SF-539 and with UACC-62 was > 100 µM (inactive) throughout.

With `CC1CCC(=O)C(C(O)CC2CC(=O)N(c3ccccc3)C(=O)C2)C1` (stereo not drawn), the GI50 in the assay on A549, with COLO 205, with DLD-1, with EKVX, with IGROV-1 and with K562 was > 100 µM (inactive) throughout. Besides, the GI50 in the assay on KM12, in the assay with M19-MEL, in the assay on NCI-H226, with NCI-H460, in the assay on OVCAR-4 and in the assay on RPMI-8226 was > 100 µM (inactive) each time. The GI50 in the assay with RXF 393, with SF-295, in the assay on SF-539 and in the assay on UACC-62 was > 100 µM (inactive) in each case.

Source of the values: ChEMBL document CHEMBL1201862, “PubChem BioAssay data set” (2004).
